# Values of other authors as cited in PMC2229313 (The Journal of General Physiology, 1996).
# Test system: IFM/QQQ mutant Na channel
# Conditions: cytoplasmic application; ref Eaholtz et al., 1994
substance,measurement,value
KIQMK,effect on kinetics of IFM/QQQ mutant Na currents,fails to affect the kinetics of the inactivation-impaired Na channel
